Values joined by “and” are separate entries in the source; they are usually repeats but may differ in a detail not shown here. Equal entries are not always repeated. Where two headings read alike, the source gives them in different places. Some results are limits rather than exact numbers.

The nature of series [1]: Pharmacokinetics in plasma, brain and CSF. The settings on record: 0.2 mg/kg i.p., mice; for half-life: in vivo. In kind it is in vivo, CD-1 mice. As to the method:
The batches of working formulations were prepared 5–10 minutes prior to the in vivo study. […] There was also a one mouse control group. All animals were fasted for 4 h before dosing. Mice were injected i.p. with 2,2,2-tribromoethanol at the dose of 150 mg/kg prior to drawing CSF and blood. Blood collection was performed from the orbital sinus in microtainers containing K3EDTA. CSF was collected under a stereomicroscope from cisterna magna using 1 mL syringes. Animals were sacrificed by cervical dislocation after the blood samples collection. After this, right lobe brain samples were collected and weighted. All samples were immediately processed, flash-frozen and stored at −70°C until subsequent analysis.
Plasma samples (40 μL) were mixed with 200 μL of internal standard solution. After mixing by pipetting and centrifuging for 4 min at 6,000 rpm, supernatant was injected into LC-MS/MS system. […] After this, the samples were centrifuged for 4 min at 14,000 rpm, and supernatant was injected into LC-MS/MS system. CSF samples (4 μL) were mixed with 100 μL of IS(80) solution. After mixing by pipetting and centrifuging for 4 min at 6,000 rpm, 1–6 μL of each supernatant was injected into LC-MS/MS system.
Analyses of plasma, brain and CSF samples were conducted at Enamine/Bienta. The concentrations of compounds in samples were determined using high performance liquid chromatography/tandem mass spectrometry (HPLC-MS/MS) method. Data acquisition and system control was performed using Analyst 1.6.3 software (AB Sciex, Canada). The concentrations of the test compound below the lower limit of quantitation (LLOQ: 2–5 ng/mL for plasma and CSF, 1–5 ng/g for brain) were designated as zero. The pharmacokinetic data analysis was performed using noncompartmental, bolus injection or extravascular input analysis models in WinNonlin 5.2 (PharSight). Data below LLOQ were presented as missing to improve validity of T½ calculations.

Series [2] deals with C56BL/6 mice. In words: Body temperature by telemetric probe. In kind it is in vivo, mouse. The note with it: body temperature over 150 minutes. The method, then:
Body temperature (BT) was measured using a telemetric probe device (HD-X10; Data Science International). Briefly, under anesthesia, the probe device was placed in the mouse abdomen and a subcutaneous tunnel was created from the neck to the abdominal skin, through which a catheter (connected to the probe) was pulled and then inserted into the left carotid artery. Three weeks later, the implanted mice were singly housed in a cage that was placed on top of the DSI receiver (for probe signal detection). […] Data were acquired using the Ponemah Telemetry acquisition software (DSI) and percent changes were presented relative to each mouse’s baseline.

In series [3] the test system is C56BL/6 mice. In words: Conditioned place preference. The note with it: mouse, in vivo. The method, then: To determine if ‘4042 was inherently rewarding or aversive we used the conditioned place paradigm as described. Briefly, mice were first habituated to the test apparatus, twice, and their preference for each chamber recorded for 30 minutes (Pretest). Two conditioning days followed in which mice received the vehicle control or the compound, and 30 minutes later restricted for 30 minutes in the preferred or non-preferred chamber, respectively. On day 5 (Test day), mice were allowed to roam freely between the 3 chambers of the apparatus and their preference for each chamber recorded for 30 minutes. To calculate the CPP score, we subtracted the time spent in each chamber of the box on the Pretest day from that of the Test day (CPP score = Test - Pretest).

The subject of series [4] is C56BL/6 mice. In words: Rotarod test of sedation. In kind it is in vivo, mouse. The note with it: for dose showing motor deficits: rotarod test. As to the method: Hindpaw mechanical thresholds were determined with von Frey filaments using the up-down method. […] Each training has three sessions of five min. each.
The target of series [5] is T1, hCB1 (Homo sapiens, UniProt P21554). In words: Cerep HTRF cAMP inhibition assay, hCB1 CHO-K1 cells. In kind it is cell-based. As to the method:
The hCB1 CHO-K1 cells are suspended in HBSS buffer (Invitrogen) complemented with 20 mM HEPES (pH 7.4), then distributed in microplates at a density of 5.103 cells/well in the presence of either of the following: HBSS (basal control), the reference agonist at 30 nM (stimulated control) or the test compounds. […] Following 30 min incubation at 37°C, the cells are lysed, and the fluorescence acceptor (D2-labeled cAMP) and fluorescence donor (anti-cAMP antibody labeled with europium cryptate) are added. […] Each measurement was done in triplicate.
(In TR-FRET formats the signal depends on donor and acceptor labels being close together.)

In series [6] the target is T1, hCB1. In words: DiscoverX PathHunter β-arrestin-2 recruitment assay. The class given is cell-based. As to the method: PathHunter cell lines (CHO-K1 lineage expressing hCB1) were expanded from freezer stocks according to standard procedures. Cells were seeded in a total volume of 20 μL into white walled, 384-well microplates and incubated at 37°C for the appropriate time prior to testing. For agonist determination, cells were incubated with sample to induce response. Intermediate dilution of sample stocks was performed to generate 5X sample in assay buffer. 5 μL of 5X sample was added to cells and incubated at 37°C or room temperature for 90 to 180 minutes. Vehicle concentration was 1%. […] Microplates were read following signal generation with a PerkinElmer EnvisionTM instrument for chemiluminescent signal detection. Compound activity was analyzed using CBIS data analysis suite (ChemInnovation, CA).
The data were analyzed in GraphPad Prism 9.1 using “dose–response-stimulation log(agonist) versus response (four parameters)” and data were presented as EC50 or pEC50 ± CIs of one independent experiment in duplicate.

In the next series the target is hCB2 (Homo sapiens, UniProt P34972). In words: Cerep cAMP assay. The class given is cell-based. On the technique in general: Changes in cAMP serve as a functional read-out for many G protein-coupled receptors.
The test system of series [7] is melatonin-1 (MT1R), ghrelin (GHSR), Sigma1 and peripheral benzodiazepine receptors. Description: PDSP off-target secondary validation (dose response) assays. In kind it is cell-based. The note with it: read-out: EC50 at off-target receptors (weak partial agonism). The method, then:
(§1) Compound ‘4042 was tested at 10 μM for off-target activity against a panel of 320 non-olfactory GPCRs using PRESTO-Tango GPCRome arrestin-recruitment assay, as described. Receptors with at least three-fold increased relative luminescence over corresponding basal activity are potential positive hits, and were tested in dose response follow-up studies. Compound ‘4042 was further tested at 1 μM for off-target activity at a panel of 45 common GPCR and non-GPCR drug targets. Receptors with at least 50% displaced radioligand are potential positive hits and were tested in dose response follow-up studies. Screening was performed by the National Institutes of Mental Health Psychoactive Drug Screen Program (PDSP)[81].

The test system of the next series is GPR55, GPR18, GPR119. In words: PRESTO-Tango GPCRome arrestin-recruitment screen. The class given is cell-based. The note with it: tested at 10 μM. As to the method:
as §1

Series [8] deals with T1, hCB1. In words: GloSensor cAMP accumulation assay. The class given is cell-based. Details: host or cells: HEK293 (HEK293SL clone), transient. The settings on record: for Emax: read-out: hCB1 Glosensor cAMP Emax [95% CI]. As to the method: The results were analysed using GraphPad Prism 9.1. Each experiment was performed in triplicate and functional IC50 values were determined from the mean of three independent experiments.

T1 sequence (P21554 whole entry): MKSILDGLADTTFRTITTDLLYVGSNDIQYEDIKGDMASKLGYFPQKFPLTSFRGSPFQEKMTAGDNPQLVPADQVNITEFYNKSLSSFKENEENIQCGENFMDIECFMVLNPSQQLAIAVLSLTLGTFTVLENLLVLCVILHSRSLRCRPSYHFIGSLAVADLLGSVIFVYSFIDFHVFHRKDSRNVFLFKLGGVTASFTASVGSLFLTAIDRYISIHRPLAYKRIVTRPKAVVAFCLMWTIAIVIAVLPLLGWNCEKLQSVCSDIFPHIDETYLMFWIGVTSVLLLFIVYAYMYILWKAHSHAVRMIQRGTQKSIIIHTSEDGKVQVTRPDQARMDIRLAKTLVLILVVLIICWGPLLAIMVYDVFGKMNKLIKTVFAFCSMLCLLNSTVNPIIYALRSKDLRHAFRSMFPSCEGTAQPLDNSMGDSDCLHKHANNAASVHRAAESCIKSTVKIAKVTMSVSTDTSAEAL
Sequence of hCB2 (P34972 whole entry): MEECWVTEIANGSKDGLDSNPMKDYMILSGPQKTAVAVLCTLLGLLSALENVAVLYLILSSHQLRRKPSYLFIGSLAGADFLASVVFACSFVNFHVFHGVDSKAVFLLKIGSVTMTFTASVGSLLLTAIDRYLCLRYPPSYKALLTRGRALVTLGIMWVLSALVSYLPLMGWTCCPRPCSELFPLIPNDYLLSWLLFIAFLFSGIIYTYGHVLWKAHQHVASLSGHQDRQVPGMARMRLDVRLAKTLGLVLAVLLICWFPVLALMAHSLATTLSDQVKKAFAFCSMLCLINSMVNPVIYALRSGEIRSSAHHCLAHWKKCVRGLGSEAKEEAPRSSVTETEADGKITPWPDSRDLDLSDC

In the case of `CCCCCCC(C)(C)c1ccc([C@@H]2C[C@H](O)CC[C@H]2CCCO)c(O)c1` [CP-55,940, reference compound], in series [1], the Cmax brain is on record as 19.2 ng/g and the “plasma Cmax increase compared to ‘4042” value is reported as roughly 10 fold. The half-life (in general, the time needed for the level to fall by half in the phase considered) in series [1] (male, CD-1, mouse, ip) is 2.12 h. The “hypothermia compared to baseline and vehicle” value in the series with C56BL/6 mice [2] is recorded as “induced hypothermia”. Also, in the series with C56BL/6 mice [3], the conditioned place preference result is reported as “may actually induce some aversion”.

On to `COC(=O)[C@@](C)(NC(=O)c1cc(C)n(-c2cccc(C(F)(F)F)c2)n1)c1cccs1` [‘1350], for which the “window between heat-based response and sedation” value with C56BL/6 mice [4] (rotarod) was “only five-fold”. Also, the “dose showing motor deficits” value with C56BL/6 mice [4] is on record as 0.5 mg/kg. Besides, the “hypothermia compared to baseline and vehicle” value in the series on C56BL/6 mice [2] was “induced hypothermia”.

On to `COC(=O)C(C)(NC(=O)c1cc(C)n(-c2cccc(C(F)(F)F)c2)n1)c1cccs1` (stereo not drawn) [‘4042], for which the 50% effective concentration (EC50) (as a rule, the concentration needed to bring the measured effect to its halfway point) was 0.008 nM at hCB1 [5]; 2.3 nM at hCB1 [6] (hCB1 DiscoverX ß-arrestin recruitment EC50 [95% CI]); 2 nM at hCB1 [6] (hCB1 DiscoverX ß-arrestin recruitment pEC50 [95% CI]); 0.0112 nM on hCB2; greater than 1000 nM in series [7]; 0.0398 nM at hCB1 [8]. The Emax (commonly the maximal effect, on the per cent scale that the assay sets) came out at 96% at hCB1 [5] (CHO-K1, read-out: hCB1 Cerep cAMP Emax [95% CI]); 71% at hCB1 [6] (read-out: hCB1 DiscoverX ß-arrestin recruitment Emax [95% CI]); 72% on hCB2 (read-out: hCB2 Cerep cAMP Emax [95% CI]); 91% on hCB1 [8]. Also, the “agonist activity at putative cannabinoid receptors” value with GPR55, GPR18, GPR119 is “no agonist activity”. In series [1], this molecule registered a Cmax brain of 16.8 ng/g. In series [1], the “compartments in which compound was found” value is “appreciably in brain and plasma, but not CSF compartments”. In addition, the AUC(0-inf) in series [1] (male, CD-1, mouse, brain, ip, read-out: AUC0→inf brain tissue (converted)) is 53 ng·h/mL; in [1] (male, CD-1, mouse, plasma, ip, read-out: AUC0→inf plasma (converted)) it was 22.5 ng·h/mL. Besides, the half-life in [1] (male, CD-1, mouse, ip) was 1.9 h. For the same molecule, in series [1] (male, CD-1, mouse, plasma, ip), the highest concentration (Cmax) (as a rule, the peak of the concentration-time curve) is 5.14 ng/mL and 12 nM. Moreover, the “dose showing motor deficits” value in the series on C56BL/6 mice [4] came to 1.0 mg/kg. The “hypothermia compared to baseline and vehicle” value in the series on C56BL/6 mice [2] is “induced hypothermia”. Moreover, in the series on C56BL/6 mice [3], the conditioned place preference entry was “does not induce preference”.

Regarding `COC(=O)C(NC(=O)c1cc(C)n(-c2cccc(C(F)(F)F)c2)n1)c1cccs1` (stereo not drawn) [‘60154], at hCB1 [8], the EC50 was 25.1 nM and the maximum response (Emax) amounted to 82%.

Source of the values: paper doi:10.1101/2023.02.27.530254, “Large library docking for cannabinoid-1 receptor agonists with reduced side effects” (bioRxiv, 2024).
